Measurements taken from patent US20240116892A1, “HETEROCYCLIC AMIDE AND UREA COMPOUNDS AS JAK2 INHIBITORS” (Ajax Therapeutics, Inc., priority 2022, published 2024).
pKd: −log10 of the molar value.

Target: JAK2 (JH1 domain-catalytic, Y1007F, Y1008F) kinase (Homo sapiens (Human), UniProt O60674, Y1007F/Y1008F)
Assay: JAK2 JH1 Domain Binding Assay
Conditions: qPCR readout
Experimental: JAK2 (JH1 domain-catalytic, Y1007F, Y1008F) kinase was expressed as N-terminal fusion to the DNA binding domain of NFkB in transiently transfected HEK293 cells and subsequently tagged with DNA for qPCR detection. Streptavidin-coated magnetic beads were treated with biotinylated small molecule ligands for 30 minutes at room temperature to generate affinity resins for kinase assays. The liganded beads were blocked with excess biotin and washed with blocking buffer (SeaBlock (Pierce), 1% BSA, 0.05% Tween 20, 1 mmol/L DTT) to remove unbound ligand and to reduce nonspecific phage binding. Binding reactions were assembled by combining kinases, liganded affinity beads, and test compounds in 1× binding buffer (1× PBS, 0.05% Tween 20, 0.1% BSA, 1 mmol/L DTT). Test compound was prepared as 111× stocks in 100% DMSO and directly diluted into the assay wells. All reactions were performed in polypropylene 384-well plates in a final volume of 0.02 mL. The assay plates were incubated at room temperature with shaking for 1 hour and the affinity beads were washed with wash buffer (1× PBS, 0.05% Tween 20). The beads were then re-suspended in elution buffer (1× PBS, 0.05% Tween 20, 0.5 μmol/L non-biotinylated affinity ligand) and incubated at room temperature with shaking for 30 minutes. The kinase concentration in the eluate was measured by qPCR.

Sequence of JAK2 (JH1 domain-catalytic, Y1007F, Y1008F) kinase (O60674 849-1124 Y1007F/Y1008F): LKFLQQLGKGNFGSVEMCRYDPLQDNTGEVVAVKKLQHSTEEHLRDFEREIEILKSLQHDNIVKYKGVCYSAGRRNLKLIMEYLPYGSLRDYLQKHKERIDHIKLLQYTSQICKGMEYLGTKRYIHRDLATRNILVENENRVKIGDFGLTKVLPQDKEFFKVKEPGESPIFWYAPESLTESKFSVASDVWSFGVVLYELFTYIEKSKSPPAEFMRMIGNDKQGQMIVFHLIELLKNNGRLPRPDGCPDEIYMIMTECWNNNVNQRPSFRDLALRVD

| Molecule | pKd |
| --- | --- |
| 1-(1-(3-((1R,2R)-2-hydroxycyclobutoxy)-1H-pyrazolo[3,4-b]pyridin-5-yl)piperidin-4-yl)-1-methyl-3-(1-methyl-2-oxo-5-(trifluoromethyl)-1,2-dihydropyridin-3-yl)urea and 1-(1-(3-((1S,2S)-2-hydroxycyclobutoxy)-1H-pyrazolo[3,4-b]pyridin-5-yl)piperidin-4-yl)-1-methyl-3-(1-methyl-2-oxo-5-(trifluoromethyl)-1,2-dihydropyridin-3-yl)urea [Example I-184-a] | 6.00 to 7.30 |
| 1-(1-(3-((1R,2R)-2-hydroxycyclobutoxy)-1H-pyrazolo[3,4-b]pyridin-5-yl)piperidin-4-yl)-1-methyl-3-(1-methyl-2-oxo-5-(trifluoromethyl)-1,2-dihydropyridin-3-yl)urea and 1-(1-(3-((1S,2S)-2-hydroxycyclobutoxy)-1H-pyrazolo[3,4-b]pyridin-5-yl)piperidin-4-yl)-1-methyl-3-(1-methyl-2-oxo-5-(trifluoromethyl)-1,2-dihydropyridin-3-yl)urea [Example I-184-b] | 5.30 to 6.00 |
| CN(C(=O)Nc1cc(C(F)(F)F)ccn1)[C@H]1CCN(c2cnc3[nH]ncc3c2)CC1(F)F (mixture of isomers) [Example I-146-b, (R)-1-(3,3-difluoro-1-(1H-pyrazolo[3,4-b]pyridin-5-yl)piperidin-4-yl)-1-methyl-3-(4-(trifluoromethyl)pyridin-2-yl)urea and (S)-1-(3,3-difluoro-1-(1H-pyrazolo[3,4-b]pyridin-5-yl)piperidin-4-yl)-1-methyl-3-(4-(trifluoromethyl)pyridin-2-yl)urea] | > 8.00 |
| CN(C(=O)Nc1cncc(C(F)(F)F)c1)[C@@H]1CCN(c2cnc3[nH]ncc3c2)CC1(F)F.CN(C(=O)Nc1cncc(C(F)(F)F)c1)[C@H]1CCN(c2cnc3[nH]ncc3c2)CC1(F)F (mixture of isomers) [Example I-147-a, (R)-1-(3,3-difluoro-1-(1H-pyrazolo[3,4-b]pyridin-5-yl)piperidin-4-yl)-1-methyl-3-(5-(trifluoromethyl)pyridin-3-yl)urea and (S)-1-(3,3-difluoro-1-(1H-pyrazolo[3,4-b]pyridin-5-yl)piperidin-4-yl)-1-methyl-3-(5-(trifluoromethyl)pyridin-3-yl)urea] | > 8.00 |
| CN(C(=O)Nc1cc(C(F)(F)F)cn(C)c1=O)[C@@H]1CC=C(c2cnc3[nH]cc(N4CCOCC4)c3n2)CC1.CN(C(=O)Nc1cc(C(F)(F)F)cn(C)c1=O)[C@H]1CC=C(c2cnc3[nH]cc(N4CCOCC4)c3n2)CC1 (mixture of isomers) [Example I-165-a, (S)-1-methyl-3-(1-methyl-2-oxo-5-(trifluoromethyl)-1,2-dihydropyridin-3-yl)-1-(4-(7-morpholino-5H-pyrrolo[2,3-b]pyrazin-2-yl)cyclohex-3-en-1-yl)urea and (R)-1-methyl-3-(1-methyl-2-oxo-5-(trifluoromethyl)-1,2-dihydropyridin-3-yl)-1-(4-(7-morpholino-5H-pyrrolo[2,3-b]pyrazin-2-yl)cyclohex-3-en-1-yl)urea] | > 8.00 |
| CC(=O)Nc1c[nH]c2ncc(N3CC[C@H](N(C)C(=O)Nc4cc(C(F)(F)F)cn(C)c4=O)C(F)(F)C3)cc12 (mixture of isomers) [Example I-172-b, (R)—N-(5-(3,3-difluoro-4-(1-methyl-3-(1-methyl-2-oxo-5-(trifluoromethyl)-1,2-dihydropyridin-3-yl)ureido)piperidin-1-yl)-1H-pyrrolo[2,3-b]pyridin-3-yl)acetamide and (S)—N-(5-(3,3-difluoro-4-(1-methyl-3-(1-methyl-2-oxo-5-(trifluoromethyl)-1,2-dihydropyridin-3-yl)ureido)piperidin-1-yl)-1H-pyrrolo[2,3-b]pyridin-3-yl)acetamide] | > 8.00 |
| CN(C(=O)Nc1cc(C(F)(F)F)cn(C)c1=O)[C@H]1CCN(c2cnccn2)CC1(F)F (single isomer, unassigned) [Example I-22-b] | 7.30 to 8.00 |
| CN(C(=O)Nc1cc(C(F)(F)F)cn(C)c1=O)[C@@H]1CCN(c2cnc3[nH]ccc3n2)CC1(F)F (single isomer, unassigned) [Example I-27-a] | > 8.00 |
| CN(C(=O)Nc1cc(C(F)(F)F)cn(C)c1=O)[C@H]1CCN(c2cnc3[nH]ccc3n2)CC1(F)F (single isomer, unassigned) [Example I-27-b] | > 8.00 |
| Cc1c[nH]c2ncc(N3CCC(N(C)C(=O)Nc4cc(C(F)(F)F)cn(C)c4=O)C(F)(F)C3)nc12 (single isomer, unassigned) [Example I-33-a, (R)- or (S)-1-(3,3-difluoro-1-(7-methyl-5H-pyrrolo[2,3-b]pyrazin-2-yl)piperidin-4-yl)-1-methyl-3-(1-methyl-2-oxo-5-(trifluoromethyl)-1,2-dihydropyridin-3-yl)urea] | > 8.00 |
| Cc1c[nH]c2ncc(N3CCC(N(C)C(=O)Nc4cc(C(F)(F)F)cn(C)c4=O)C(F)(F)C3)nc12 (single isomer, unassigned) [Example I-33-b, (S)- or (R)-1-(3,3-difluoro-1-(7-methyl-5H-pyrrolo[2,3-b]pyrazin-2-yl)piperidin-4-yl)-1-methyl-3-(1-methyl-2-oxo-5-(trifluoromethyl)-1,2-dihydropyridin-3-yl)urea] | > 8.00 |
| CC(=O)Nc1cnc(N2CC[C@@H](N(C)C(=O)Nc3cc(C(F)(F)F)cn(C)c3=O)C(F)(F)C2)cn1 (single isomer, unassigned) [Example I-35-a] | > 8.00 |

Now from value to molecule:

| pKd | Molecule |
| --- | --- |
| > 8.00 | CN(C(=O)Nc1cc(C(F)(F)F)ccn1)[C@@H]1CCN(c2cnc3[nH]ncc3c2)CC1(F)F (mixture of isomers) [Example I-146-a, (R)-1-(3,3-difluoro-1-(1H-pyrazolo[3,4-b]pyridin-5-yl)piperidin-4-yl)-1-methyl-3-(4-(trifluoromethyl)pyridin-2-yl)urea and (S)-1-(3,3-difluoro-1-(1H-pyrazolo[3,4-b]pyridin-5-yl)piperidin-4-yl)-1-methyl-3-(4-(trifluoromethyl)pyridin-2-yl)urea] |
| > 8.00 | CN(C(=O)Nc1cc(C(F)(F)F)cn(C)c1=O)C12CC(c3cnc4[nH]nc(OC5CCOC5)c4c3)(C1)C2 (mixture of isomers) [Example I-166, (S)-1-methyl-3-(1-methyl-2-oxo-5-(trifluoromethyl)-1,2-dihydropyridin-3-yl)-1-(3-(3-((tetrahydrofuran-3-yl)oxy)-1H-pyrazolo[3,4-b]pyridin-5-yl)bicyclo[1.1.1]pentan-1-yl)urea and (R)-1-methyl-3-(1-methyl-2-oxo-5-(trifluoromethyl)-1,2-dihydropyridin-3-yl)-1-(3-(3-((tetrahydrofuran-3-yl)oxy)-1H-pyrazolo[3,4-b]pyridin-5-yl)bicyclo[1.1.1]pentan-1-yl)urea] |
| 6.00 to 7.30 | CN(C(=O)Nc1cc(C(F)(F)F)cn(C)c1=O)[C@@H]1CCN(c2cnc3[nH]ncc3c2)C[C@H]1OC(F)F.CN(C(=O)Nc1cc(C(F)(F)F)cn(C)c1=O)[C@H]1CCN(c2cnc3[nH]ncc3c2)C[C@@H]1OC(F)F (mixture of isomers) [Example I-167-a, 1-((3S,4S)-3-(difluoromethoxy)-1-(1H-pyrazolo[3,4-b]pyridin-5-yl)piperidin-4-yl)-1-methyl-3-(1-methyl-2-oxo-5-(trifluoromethyl)-1,2-dihydropyridin-3-yl)urea and 1-((3R,4R)-3-(difluoromethoxy)-1-(1H-pyrazolo[3,4-b]pyridin-5-yl)piperidin-4-yl)-1-methyl-3-(1-methyl-2-oxo-5-(trifluoromethyl)-1,2-dihydropyridin-3-yl)urea] |
| > 8.00 | CC(=O)Nc1c[nH]c2ncc(N3CC[C@@H](N(C)C(=O)Nc4cc(C(F)(F)F)cn(C)c4=O)C(F)(F)C3)cc12 (mixture of isomers) [Example I-172-a, (R)—N-(5-(3,3-difluoro-4-(1-methyl-3-(1-methyl-2-oxo-5-(trifluoromethyl)-1,2-dihydropyridin-3-yl)ureido)piperidin-1-yl)-1H-pyrrolo[2,3-b]pyridin-3-yl)acetamide and (S)—N-(5-(3,3-difluoro-4-(1-methyl-3-(1-methyl-2-oxo-5-(trifluoromethyl)-1,2-dihydropyridin-3-yl)ureido)piperidin-1-yl)-1H-pyrrolo[2,3-b]pyridin-3-yl)acetamide] |
| 7.30 to 8.00 | CN(C(=O)Nc1cc(C(F)(F)F)cn(C)c1=O)[C@@H]1CCN(c2cnccn2)CC1(F)F (single isomer, unassigned) [Example I-22-a] |
| > 8.00 | CN(C(=O)Nc1cc(C(F)(F)F)cn(C)c1=O)[C@@H]1CCN(c2cnc(NC(=O)C3CC3)cn2)CC1(F)F (single isomer, unassigned) [Example I-34-a] |
| > 8.00 | CN(C(=O)Nc1cc(C(F)(F)F)cn(C)c1=O)[C@H]1CCN(c2cnc(NC(=O)C3CC3)cn2)CC1(F)F (single isomer, unassigned) [Example I-34-b] |
| > 8.00 | CC(=O)Nc1cnc(N2CC[C@H](N(C)C(=O)Nc3cc(C(F)(F)F)cn(C)c3=O)C(F)(F)C2)cn1 (single isomer, unassigned) [Example I-35-b] |
| > 8.00 | Cc1n[nH]c2ncc(N3CCC(N(C)C(=O)Nc4cc(C(F)(F)F)cn(C)c4=O)C(F)(F)C3)cc12 (single isomer, unassigned) [Example I-36-a, (R)- or (S)-1-(3,3-difluoro-1-(3-methyl-1H-pyrazolo[3,4-b]pyridin-5-yl)piperidin-4-yl)-1-methyl-3-(1-methyl-2-oxo-5-(trifluoromethyl)-1,2-dihydropyridin-3-yl)urea] |
